Tests used:
[1] = system: experimental animal trachea; experiment: Relaxation of trachea pre-contracted by anaphylactic stimulation (ovoalbumin); settings: pre-contracted with ovoalbumin (20 μg/ml), average±SEM, at least 3 animals; read-out: IC50, concentration necessary to relax in 50% the anaphylatic spasm of trachea
Experimental: Female and male experimental animals were used, weighing between 300 and 400 g, they came from Oswaldo Cruz Foundation's Center of Laboratory Animal Raising. The procedures involving the animals were examined and approved by Oswaldo Cruz Foundation's Committee of Animal Ethics (CEUA-FIOCRUZ, License number 00085-02). The animals were sensitized through a subcutaneous injection with a mixture of 50 μg ovoalbumin and 5 mg Al(OH)3. Fourteen to thirty days after the sensitization, the experimental animal was sacrificed in a chamber of carbonic gas to have its trachea removed. The trachea was transferred to a Petri dish containing Krebs solution (composition in mM) (NaCl-119; […] NaHCO3-25; […] The total segment was divided into fragments of about 3 to 4 rings that were sectioned at the extreme ending, the muscular part of the trachea. Each fragment had one of its ends tied to a rod while the other end was connected to an isometric transductor (U Basile, Italy) after the transference from the rod to a 10 ml glass cuvette. […] The contractions were registered with the […] of a computerized system of data capture (Letica, Spain). […] The results were shown as a percentage of relaxation in relation to the plateau of the anaphylatic pre-contraction. Concentration-response data were adjusted through non-linear regression curves with the […] of a graphics software (GraphPad Prism, USA). […] The values were expressed as an average± standard error of the mean and statistically analysed through the test of analysis variance (ANOVA), followed by the Newman-Keuls-Student test.

[2] = system: Na^+ currents in GH3 cells; experiment: Tonic block of Na+ currents in GH3 cells, whole cell patch clamp; assay type: cell-based, Rat; settings: for IC50: GH3 cells, holding potential −80 mV to +60 mV step pulse, read-out: IC50, blockade of Na+ currents
Experimental: Ion channel currents were recorded by means of a patch clamp technique. The cells cultured on the cover glass were placed in a chamber fixed to a microscope stage and continuously perfused with extracellular Saline (A) solution (in mM); 150 NaCl, 5 KCl, 1 MgCl2, 0.01 CaCl2, 1 EGTA, 10 HEPES, 2 BaCl2, 0.1 CdCl2, pH 7.4 at room temperature (22-25° C.) adjusted with NaOH. The cells were observed using phase contrast mode under an inverted microscope (Axiovert 100, Carl Zeiss, Oberkochem, D Germany). Tight-seal (>10 GΩ) whole cell voltage-clamp recordings were performed with an Axopatch-1D amplifier (Axon Instruments, San Mateo, Calif.). […] Fifteen minutes after rupture of the patch membrane, we started to record ion channel currents. Pulse protocols and data acquisition were controlled by Digidata 1320 interface (Axon Instruments, Palo Alto, Calif.), and acquired on a personal computer using Clampex 9 software. The Na^+ current recordings were filtered at 1 kHz and sampled at 8 kHz. About 26% of series resistance was electronically compensated. Drugs were applied to the recording chamber by gravity. Perfusion rate was maintained at 0.8-1.1 ml/min and bath volume was of 50 μl. […] Voltage-gated Na^+ currents were recorded from these cells in the presence or absence of treatment.

[3] = system: sensitized experimental animals; experiment: Pulmonary eosinophil infiltrate after ovoalbumin aerosol challenge, bronchoalveolar lavage count; assay type: in vivo; settings: 5% aerosol, 30 min, with ovoalbumin 1% plus 3 aerosolizations every 3 h; lavage 24 h after challenge
Experimental: The animals were sensitized through a cutaneous injection of a mixture with 50 μg ovoalbumin and 5 mg Al(OH)3, and challenged with ovoalbumin (1%) aerosol for 30 min 14 days afterwards, according to what was previously described. In order to avoid death of animals by anaphylatic asphyxia, all of them were treated intraperitonially with the anti-histaminic difenidramine (30 mg/kg) 30 minutes before being challenged.
Bronchoalveolar Lavage and Eosinophils Counting
All the animals were anesthesized terminally through an intraperitonial injection of pentobarbital (200 mg/kg) 24 h after the antigenic challenge, to wash the bronchoalveolar space according to the techniques previously described. Total leukocyte count were done after dilution of bronchoalveolar lavage samples in Turk liquid and counting in the Neubauer chamber with the assistance of direct-light microscopy. The differential eosinophil count was done also under direct-light microscopy, after centrifugation of samples of the lavage as well as its exposure to specific dyestuff (May-Grunwald-Giemsa dye).
The averages± standard error of the mean of the groups investigated were analyzed based on statistics through the test of variance analysis (ANOVA), followed by the Newman-Keuls-Student test.
Values, expressed in terms of “number of eosinophils×10^6/lavage” are presented as average±SEM in at least 7 animals. In the negative control group, animals previously sensitized were artificially-challenged through exposure to sterile saline (NaCl, 0.9%) aerosol. […] “*” represents the difference statistically significant (P<0.05), when the group treated and the positive control group were compared.

patients = settings: long-term treatment, nebulized; cited from earlier work

SMILES	IC50 [1] [µM]	IC50 [2] [µM]	50% inhibitory concentration, times higher than lidocaine ([2]; ratio to lidocaine IC50) [times]	blocking the accumulation of eosinophils in the bronchoalveolar area [3]	patients with relief of asthma symptoms and diminished dependency on steroidal anti-inflammatory treatment (patients)
CCN(CC)CC(=O)Nc1cccc(C)c1C [JM23-1, 2-dyethylamine-2′,3′-acetoxylidide]	220 ± 60	–	–	–	–
CCN(CC)CC(=O)Nc1ccc(C)cc1C [JM24-1, 2-dyethylamine-2′,4′-acetoxylidide]	30	5200	29	equipotent to lidocaine	–
CCN(CC)CC(=O)Nc1c(C)cccc1C [Lidocaine, 1-(2-(dyethylamine)N-dymethylfenyl)-acetamide, reference compound]	1350 ± 20	180	–	clearly sensitive to lidocaine treatment	20 out of 24
